Melting point and Kd data for ten compounds are collected here from patent US8163952B2, “RAR receptor agonist ligands and use thereof in human medicine and cosmetics” (Galderma Research & Development, priority 2007, dated 2012).

One data set concerns the target T1, RARγ (Homo sapiens, UniProt P13631).
T1 sequence (P13631 185-454 limits assumed): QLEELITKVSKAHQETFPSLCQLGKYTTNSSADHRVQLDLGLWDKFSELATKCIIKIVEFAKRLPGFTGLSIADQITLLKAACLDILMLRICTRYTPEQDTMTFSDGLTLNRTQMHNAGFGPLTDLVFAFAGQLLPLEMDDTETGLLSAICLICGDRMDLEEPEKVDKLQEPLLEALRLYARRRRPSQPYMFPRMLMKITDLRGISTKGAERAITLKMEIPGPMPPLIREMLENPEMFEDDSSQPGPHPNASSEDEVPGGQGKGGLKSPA
In words: Transactivation assay (luciferase reporter, crossed curves vs reference agonist, Schild regression). To be noted: HeLa stable transfectants, ERE-βGlob-Luc-SV-Neo reporter and RARγ ER-DBD-puro; 18 hours incubation; apparent Kd; read-out: RARγ Kdapp. The format is cell-based. As for the experimental part: (§1) This activity on RARα, β and γ receptors is measured in a transactivation test and quantified by means of the dissociation constant Kdapp (apparent).
(§2) The activation of receptors with an agonist (activator) in HeLa cells leads to the expression of a reporter gene, luciferase, which, in the presence of a substrate, generates light. The activation of the receptors can thus be measured by quantifying the luminescence produced after incubation of the cells in the presence of a reference agonist. Inhibitory products will displace the agonist from its site, thus preventing activation of the receptor. The activity is measured by quantifying the decrease in light produced. This measurement makes it possible to determine the inhibitory activity of the compounds according to the invention.
(§3) In this study, a constant is determined which represents the affinity of the molecules for the receptor. Since this value can fluctuate depending on the basal activity and the expression of the receptor, it is referred to as the Kd apparent (KdApp).
(§4) To determine this constant, “crossed curves” of the test product against a reference agonist, 4-[2-(5,5,8,8-tetramethyl-5,6,7,8-tetrahydronaphthalen-2-yl)propenyl]benzoic acid, are realized in 96-well plates. The test product is used at 10 concentrations and the reference agonist at 7 concentrations. In each well, the cells are in contact with a concentration of the test product and with a concentration of the reference agonist, 4-[2-(5,5,8,8-tetramethyl-5,6,7,8-tetrahydronaphthalen-2-yl)]propenyl]benzoic acid. Measurements are also carried out for the total agonist control (4-[2-(5,5,8,8-tetramethyl-5,6,7,8-tetrahydro-naphthalen-2-yl)propenyl]benzoic acid) and the inverse agonist control, 4-{(E)-3[4-(4-tert-butylphenyl)-5,5,8,8-tetramethyl-5,6,7,8-tetrahydronaphthalen-2-yl]-3-oxopropenyl}benzoic acid.
(§5) These AC50 values are used to calculate the Schild regression by plotting a straight line corresponding to the Schild equation (“Quantitation in receptor pharmacology” Tervy P. Kenakin, Receptors and Channels, 2001, 7, 371-385).
(§6) The HeLa cell lines used are stable transfectants containing the ERE-βGlob-Luc-SV-Neo (reporter gene) and RAR (α, β, γ) ER-DBD-puro plasmids. These cells are seeded in 96-well plates at a rate of 10 000 cells per well in 100 μl of DMEM medium without phenol red, supplemented with 10% of defatted calf serum. The plates are then incubated at 37° C., 7% CO2, for 4 hours.
(§7) The plates are then incubated for 18 hours at 37° C., 7% CO2. The culture medium is removed by turning the plates over, and 100 μl of a 1:1 PBS/luciferin mixture are added to each well. After 5 minutes, the plates are read using a luminescence reader.

The next data set concerns the target T2, RARα (Homo sapiens, UniProt P10276).
T2 sequence (P10276 183-462 limits assumed): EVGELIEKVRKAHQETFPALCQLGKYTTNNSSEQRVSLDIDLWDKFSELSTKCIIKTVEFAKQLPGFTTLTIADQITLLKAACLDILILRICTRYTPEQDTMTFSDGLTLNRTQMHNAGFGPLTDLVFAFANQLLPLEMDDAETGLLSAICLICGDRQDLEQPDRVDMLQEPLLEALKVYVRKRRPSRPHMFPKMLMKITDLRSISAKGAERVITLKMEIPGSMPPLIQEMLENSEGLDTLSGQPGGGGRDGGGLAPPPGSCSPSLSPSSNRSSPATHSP
The description is as above. The settings on record: HeLa stable transfectants, ERE-βGlob-Luc-SV-Neo reporter and RARα ER-DBD-puro; 18 hours incubation; apparent Kd; read-out: RARα Kdapp. The class given is cell-based. As for the experimental part:
as §1, §2, §3, §4, §5, §6, §7

The next data set deals with T3, RARβ (Homo sapiens, UniProt P10826).
T3 sequence (P10826 154-455 limits assumed): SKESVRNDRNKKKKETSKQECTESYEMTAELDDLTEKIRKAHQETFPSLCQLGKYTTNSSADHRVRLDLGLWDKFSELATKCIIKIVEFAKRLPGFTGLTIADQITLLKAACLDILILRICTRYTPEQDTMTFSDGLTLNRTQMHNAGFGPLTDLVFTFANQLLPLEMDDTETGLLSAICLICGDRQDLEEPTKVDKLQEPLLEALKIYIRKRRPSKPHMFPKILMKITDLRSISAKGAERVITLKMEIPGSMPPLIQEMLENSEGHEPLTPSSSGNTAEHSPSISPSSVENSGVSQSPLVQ
The data set is described as above. The format is cell-based. The settings on record: HeLa stable transfectants, ERE-βGlob-Luc-SV-Neo reporter and RARβ ER-DBD-puro; 18 hours incubation; apparent Kd; read-out: RARβ Kdapp. As for the experimental part: as §1, §2, §3, §4, §5, §6, §7

A word on the melting point: it is the temperature, or range, at which the solid turns liquid.

SMILES strings stand for the structures.

Take `CCN(CC)c1ccc(C(O)C#Cc2ccc(C(=O)O)cc2)cc1C(C)(C)C` (stereo not drawn) [Compound of example 1, 4-[3-(3-tert-butyl-4-diethylaminophenyl)-3-hydroxyprop-1-ynyl]benzoic acid]: the melting point was found to be 140 °C. For the same compound, at RARγ, the Kd is 0.0375 µM. Further, the Kd at RARα is 0.625 µM. Further, the Kd on RARβ turned out to be 0.185 µM.

On to `CN(C)c1ccc(C(O)C#Cc2ccc(C(=O)O)cc2)cc1C(C)(C)C` (stereo not drawn) [Compound of example 3, 4-[3-(3-tert-butyl-4-dimethylaminophenyl)-3-hydroxyprop-1-ynyl]benzoic acid], for which the figures for the Kd on RARγ, on RARα and on RARβ were 0.015 µM, 0.25 µM and 0.12 µM, respectively.

`CC(C)(C)c1cc(C(O)C#Cc2ccc(C(=O)O)cc2)ccc1N1CCCC1` (stereo not drawn) [Compound of example 4, 4-[3-(3-tert-butyl-4-pyrrolidin-1-ylphenyl)-3-hydroxyprop-1-ynyl]benzoic acid]: the values for the Kd on RARγ, at RARα and on RARβ were 0.03 µM, 1 µM and 0.252 µM, respectively.

Turning to `CC(C)(C)c1cc(C(O)C#Cc2ccc(C(=O)O)cc2)ccc1N1CCCCC1` (stereo not drawn) [Compound of example 5, 4-[3-(3-tert-butyl-4-piperidin-1-ylphenyl)-3-hydroxyprop-1-ynyl]benzoic acid], the Kd on RARα stood at 4.01 µM; on RARβ it was 2.02 µM.

On to `CCN(CC)c1ccc(C(O)C#Cc2ccc(C(=O)O)c(O)c2)cc1C(C)(C)C` (stereo not drawn) [Compound of example 6, 4-[3-(3-tert-butyl-4-diethylaminophenyl)-3-hydroxyprop-1-ynyl]-2-hydroxybenzoic acid], for which the values for the Kd on RARγ, on RARα and at RARβ were 0.06 µM, 0.25 µM and 0.5 µM, respectively.

For the compound `CN(C)c1c(Cl)cc(C(O)C#Cc2ccc(C(=O)O)cc2)cc1C(C)(C)C` (stereo not drawn) [Compound of example 7, 4-[3-(3-tert-butyl-5-chloro-4-dimethylaminophenyl)-3-hydroxyprop-1-ynyl]benzoic acid], the Kd on RARγ was found to be 0.002 µM; at RARα it was 0.12 µM; on RARβ, 0.015 µM.

For the compound `CN(C)c1c(Cl)cc(C(O)C#Cc2ccc(C(=O)O)c(O)c2)cc1C(C)(C)C` (stereo not drawn) [Compound of example 8, 4-[3-(3-tert-butyl-5-chloro-4-dimethylaminophenyl)-3-hydroxyprop-1-ynyl]-2-hydroxybenzoic acid], the Kd at RARγ is 0.004 µM; at RARα it was 0.25 µM; on RARβ, 0.06 µM.

Consider `CC(C)c1cc(C(O)C#Cc2ccc(C(=O)O)cc2)cc(C(C)C)c1N(C)C` (stereo not drawn) [Compound of example 9, 4-[3-(4-Dimethylamino-3,5-diisopropylphenyl)-3-hydroxyprop-1-ynyl]benzoic acid], for which the Kd on RARγ was 0.0005 µM; at RARα it was 0.06 µM; on RARβ, 0.06 µM.

In the case of `CC(C)c1cc(C(O)C#Cc2ccc(C(=O)O)c(O)c2)cc(C(C)C)c1N(C)C` (stereo not drawn) [Compound of example 10, 4-[3-(4-Dimethylamino-3,5-diisopropylphenyl)-3-hydroxyprop-1-ynyl]-2-hydroxybenzoic acid], the figures for the Kd at RARγ, at RARα and at RARβ were 0.001 µM, 1 µM and 0.12 µM, respectively.

`CCN(CC)c1ccc(C(O)C#Cc2ccc(C(=O)O)cc2)cc1C(C)C` (stereo not drawn) [Compound of example 11, 4-[3-(4-diethylamino-3-isopropylphenyl)-3-hydroxyprop-1-ynyl]benzoic acid]: the Kd turned out to be 0.03 µM at RARγ, 1 µM at RARα and 0.06 µM on RARβ.
